Details of data set [1]: method as in PMID 13489662. The following applies: 2 weeks or more of DON therapy; cited from earlier work.
The next data set concerns hematologic malignancies. More on the design: method as in PMID 13918321. The settings on record: DON combination with standard 6-mercaptopurine (6-MP) therapy; cited from earlier work.
The nature of data set [2]: Aqueous solubility assay in PBS buffer (pH 7.4). Type of data set: physicochemical. The following applies: PBS buffer pH 7.4; 37 °C; 1 h. The protocol:
(§1) The aqueous solubility was determined as previously reported with minor modifications.[48] Briefly, an excess amount of P11 or DRP-104 was added to PBS buffer (pH 7.4) and sonicated for 1 h at 37 °C to ensure saturation. After 1 h, the solution was filtered (0.45 μm PTFE), and the filtrate was diluted appropriately, and the concentration of each analyte was determined via LC–MS. Chemical stabilities of DRP-104 and P11 were done as previously described[18] with modifications. For chemical stability, prodrugs were spiked (10 μM) in buffer at pH 7.4 and incubated at 37 °C for 24 h. Prodrug disappearance was monitored using the developed HRMS methods.

Data set [3] concerns P493B lymphoma cells suspended in human plasma. The experiment in a line: Human tumor cell to plasma partitioning assay. It counts as cell-based. The settings on record: 20 μM; 1 h; human plasma fraction. The protocol:
Human tumor cell to plasma partitioning assays were conducted as we have previously described.[25] Briefly, P493B lymphoma cells were grown at 37 °C, in a humidified atmosphere with 5% CO2. Cell confluency was estimated, and cells were harvested after achieving >80% confluency and centrifuged at 200g for 5 min at 25 °C. The obtained cell pellet was resuspended in 20 mL of Dulbecco’s phosphate-buffered saline (DPBS; Gibco, USA, cat. no. 14-190-144) maintained at 37 °C, and cell count was determined using an automated cell counter (Bio-Rad, USA). Cell suspension in DPBS was further centrifuged at 200g for 5 min at 25 °C, and the cell pellet was resuspended in human plasma (Innovative Research, USA) for partitioning assessment. The final cell density after resuspending in plasma was 10 million cells/mL of plasma. Partitioning assessment was performed in triplicate. Preincubated (37 °C for 5 min) cell–plasma suspension was spiked with DRP-104 or P11 at a final concentration of 20 μM and incubated at 37 °C for 1 h. Following incubation, a 1 mL aliquot of cell–plasma suspension was centrifuged at 1000g for 5 min at 4 °C, and supernatant plasma as well as the cell pellet was collected and stored at −80 °C until bioanalysis. Both plasma and cell pellet fractions were analyzed for intact prodrug and DON levels. […]

On the set-up of data set [4]: method as in PMID 36383674. The settings on record: cited from earlier work.
The test system of another data set is P493B lymphoma cells. The experiment in a line: Cell viability assay. The settings on record: Homo sapiens, 72 h, 72 h incubation. It counts as cell-based. The protocol:
Cell proliferation assays were performed as we have previously described.[19] Briefly, P493B lymphoma cells were plated in 96-well plates at a density of 20 000 cells/well in a final volume of 100 μL of growth media. P11, or DRP-104, was added to cells in half-log serial dilutions with a final concentration of 0.2% DMSO. Cells were allowed to proliferate for 72 h, and thereafter, 20 μL of CellTiter 96 AQueous (Promega no. 3580) was added per well and incubated for 2 h. Absorbance was measured at 490 nm. Relative cell viability was calculated from the difference between untreated cell wells (100%) and media well without cells (0%).

On the set-up of data set [5]: method as in printed. The settings on record: background statement; ref not given; cited from earlier work.
Data set [6] can be described thus: Chemical (aqueous) stability in buffer pH 7.4. Type of data set: physicochemical. The settings on record: 10 μM, pH 7.4 PBS, 37 °C, 24 h, HRMS/LCMS. How it is done:
as §1

A short description of data set [7]: Metabolic stability in mouse intestinal homogenate (GIh). The settings on record: for remaining at 1 h, 10 µM: CES1–/–, mouse, intestinal homogenate; for Intestinal homogenate: supplementary CSV, unit not given, matches Table 1 % remaining at 1 h, in %.
Data set [8] can be described thus: Metabolic stability in mouse plasma. The settings on record: for remaining at 1 h, 10 µM: CES1–/–, mouse, plasma; for Plasma: supplementary CSV, unit not given, matches Table 1 % remaining at 1 h, in %.
For data set [9] the following is noted: CES1–/–, mouse, 1 h, 10 μM.
Procedure: (§2) Briefly, intestinal tissue was homogenized over ice via probe sonication with 1:9 tissue to potassium phosphate buffer (0.1 M) conditions. Prodrugs were spiked in plasma or tissue homogenate at 10 μM final concentration with 0.2% DMSO v/v and incubated in triplicate for 0 and 60 min time points. At each time point, 100 μL of the sample was precipitated with 300 μL of methanol containing internal standard (IS; losartan, 0.5 μM). Precipitated samples were vortexed (30 s) and centrifuged at 10000g for 10 min at 4 °C. After centrifugation, 100 μL of supernatant was aliquoted and submitted for analysis. Prodrug disappearance over time was monitored by liquid chromatography–mass spectrometry (LC–MS) through peak area ratios between the analyte and internal standard.
(§3) Chromatographic analysis was performed on a Dionex ultra-high-performance LC system coupled with a Q Exactive Focus Orbitrap mass spectrometer (Thermo Fisher Scientific Inc., Waltham, MA). Separation was achieved using an Agilent Eclipse Plus column (100 × 2.1 mm i.d.; maintained at 35 °C) packed with a 1.8 μm C18 stationary phase. The mobile phase used was composed of 0.1% formic acid in acetonitrile and 0.1% formic acid in water with gradient elution, starting with 2.5% organic phase (from 0 to 0.25 min) and linearly increasing to 99% (from 0.25 to 1.25 min) and re-equilibrating to 2.5% by 4 min. The total run time for each analyte was 5 min. Pumps were operated at a flow rate of 0.4 mL/min. The mass spectrometer controlled by Xcalibur software 4.0.27.13 (Thermo Scientific) was operated with an HESI ion source in positive ionization mode for all compounds. Compounds were identified in the full-scan mode with m/z ranging from 75 to 1125.
Data set [10] is described as follows: in vitro. The following applies: CES1–/–, mouse, plasma.
Procedure: as §2, §3
A short description of data set [11]: in vitro. The settings on record: CES1–/–, mouse, tissue homogenate.
Procedure: as §2, §3
For data set [12] the following is noted: CES1–/–, mouse, 1 h, 10 μM. The source holds these as a separate data set.
Procedure: as §2, §3
Data set [13] is described as follows: Single time point pharmacokinetic screening, released DON in plasma and tumor of EL4 tumor-bearing mice. The following applies: 1 mg/kg DON equivalent SC; 30 min. It counts as in vivo, C57BL/6/CES1–/– mice. The protocol:
C57BL/6/CES1^–/– mice were obtained as a gift from the United States Army Medical Research Institute of Chemical Defense, Maryland, USA; breeding was performed in the Johns Hopkins animal facility and was conducted according to protocols reviewed and approved by the Johns Hopkins Institutional Animal Care and Use Committee in compliance with the Association for Assessment and Accreditation of Laboratory Animal Care International (AAALAC) and the Public Health Service Policy on the Humane Care and Use of Laboratory Animals (PHS Policy). Male and female C57BL/6 mice (weighing between 25 and 30 g) 6–8 weeks of age were used for the study. The animals were maintained on a 12 h light–dark cycle with ad libitum access to food (certified laboratory food: Teklad 18% Protein Extruded Rodent Diet) and water. EL4 mouse lymphoma cells were obtained as a gift from the laboratory of Dr. Jonathan Powell (Johns Hopkins University, Baltimore, MD) and maintained in RPMI 1640 medium 1X (Corning, cat. no. 10-040-CV) with 10% (v/v) fetal bovine serum (Corning, cat. no. 35-011-CV), 1% (v/v) antimycotic/antibiotic (Corning, cat. no. 30-004-CI), 2 mM L-glutamine (Corning, cat. no. 25-005-CI), and 10 mM HEPES (Corning, cat. no. 25-060-CI) in a 5% (v/v) CO2 and 95% (v/v) air incubator prior to subcutaneous (SC) injection (1 × 10^6 cells in 0.2 mL of phosphate-buffered saline) on the flank of each mouse. […]

Values after ≈ are worked out from the molar mass of the structure shown. Read-outs that look alike come from different tables or passages of the source. Some results are limits rather than exact numbers.

As a reminder, the solubility is how much of the substance goes into solution per volume. Higher therefore signals a readily soluble substance. As usually defined, the EC50 is the concentration needed to bring the measured effect to its halfway point.

For `[N-]=[N+]=CC(=O)CC[C@H](N)C(=O)O` [DON, 6-Diazo-5-oxo-L-norleucine], in data set [1], the “patients with disease stability or regression” value is listed as 66%. Also, in the data set on hematologic malignancies, the “patients with complete bone marrow remissions” value is on record as 42%.

In [2], `CC(=O)N[C@@H](Cc1c[nH]c2ccccc12)C(=O)N[C@@H](CCC(=O)C=[N+]=[N-])C(=O)OC(C)C` [DRP-104, isopropyl (S)-2-((S)-2-acetamido-3-(1H-indol-3-yl)-propanamido)-6-diazo-5-oxo-hexanoate, reference compound] showed a solubility at 1 h of 240 ± 30 µg/mL (≈ 544 µM). Besides, in [3], the “stability and DON release in human plasma” value is “stable in human plasma with no DON release”. In addition, the “fold greater delivery of DON to tumor versus GI tissues” value in [4] is on record as 11. Besides, the EC50 in the data set with P493B lymphoma cells was roughly 1 µM. Further, the “aqueous solubility (intrinsic)” value in [5] was less than 1000 µg/mL. For the same molecule, the “chemical stability in buffer” value in data set [6] is reported as “remained intact without any degradation”. In addition, the “chemical stability in buffer” value in data set [6] (listed as DRP 104) is recorded as “no degradation”. Further, in data set [7], the amount remaining at 1 h, 10 µM amounted to 0% and the Intestinal homogenate came out at 0 ± 0. For the same molecule, in data set [8], the fraction remaining at 1 h, 10 µM stood at 94 ± 1% and the Plasma was found to be 94 ± 1.

For `CC(C)(C)OC(=O)[C@H](CCC(=O)C=[N+]=[N-])NC(=O)[C@H](Cc1c[nH]c2ccccc12)NC(=O)C12CCN(CC1)CC2` [Prodrug P8, tert-Butyl (S)-2-((S)-3-(1H-Indol-3-yl)-2-(quinuclidine-4-carboxamido)propanamido)-6-diazo-5-oxohexanoate], the Plasma in data set [9] came to 106 ± 2. Further, the share remaining at 1 h, 10 µM was found to be 106 ± 2% in the data set “in vitro [10]” and 71% in “in vitro [11]”. The same molecule gave an Intestinal homogenate in data set [12] of 71 ± 0.

For the molecule `CN(C)CC(=O)N[C@@H](CCc1ccccc1)C(=O)N[C@@H](CCC(=O)C=[N+]=[N-])C(=O)OC(C)(C)C` [Prodrug P14, tert-Butyl (S)-6-Diazo-2-((S)-2-(2-(dimethylamino)acetamido)-4-phenylbutanamido)-5-oxohexanoate], the “preferential DON tumor versus plasma delivery” value in data set [13] is given as “maintained the preferential DON tumor versus plasma delivery”. Also, in data set [7], the share remaining at 1 h, 10 µM was 97 ± 3% and the Intestinal homogenate was 97 ± 3. In data set [8], the amount remaining at 1 h, 10 µM worked out at 102 ± 2% and the Plasma came out at 102 ± 2.

Source of the values: publication PMC10683027, “Discovery of tert-Butyl Ester Based 6-Diazo-5-oxo-L-norleucine Prodrugs for Enhanced Metabolic Stability and Tumor Delivery” (Journal of Medicinal Chemistry, 2023).
